From patent US12180159B2, “Activators of the unfolded protein response” (The Board of Trustees of the University of Illinois, priority 2018, dated 2024)

Tested on: ERα cell lines
Assay: 24-hour crystal violet assay and long-term cell culturing
Assay type: cell-based, human
Conditions: 24-hour crystal violet assay and long-term culture
Method: FIG. 36. Discovery of SERK-F6 (also known as, C(−)-105, (−)-105, (R)-105, (−)-1, or (R)-1), a compound that kills ERα-positive cancer cells. a, Chemical structures of BHPI and racemic compound 1 (i.e. (±)-1), and their cytotoxic activity on T47D breast cancer cells after 24-hour incubations with concentrations as indicated in nM. Cells were stained with annexin V-FITC and PI dyes prior to analysis via flow cytometry. […] Cells were incubated with SERK-F6 or positive control, Raptinal, for 24 hours and then stained with annexin V-FITC and PI dyes and analyzed via flow cytometry. Error bars represent S.E.M of 3 independent replicates. c, IC50 values of SERK-F6 after 24-hour incubation against a panel of cancer cell lines grouped by their reported ERα status. Cell viability was measured by Alamar blue fluorescence and set relative to a vehicle control and a quantitative dead control treated with Raptinal. Error bars represent S.E.M of 3 independent experiments. d, Crystal violet staining of T47D cells after 24-hour incubations with compounds and concentrations as indicated. Image is representative of 2 independent experiments. e,f, Long-term cell culture experiment with T47D, TDG, and TYS cells. […] Cell number was determined by MTS. […]
An important aspect for cytotoxic therapy is the ability to quantitatively kill a cell population. […]

## O=C1Nc2c(C(F)(F)F)cccc2C1(c1ccc(O)cc1)c1ccc(OC(F)(F)F)cc1 (single isomer, unassigned; (-)) [(−)-105, 3-(4-hydroxyphenyl)-3-(4-(trifluoromethoxy)phenyl)-7-(trifluoromethyl)indolin-2-one]
  quantitative killing of ERα cell lines: quantitatively kills
